Assay results as given in patent US6900200B2, “Tricyclic hydroxy carboxamides and derivatives thereof tocolytic oxytocin receptor antagonists” (Wyeth, priority 2001, dated 2005).

Target: T1, human vasopressin V2 receptor subtype (Homo sapiens, UniProt P30518)
T1 construct: host or cells: CHO cells, pZeoSV vector
Assay: Vasopressin binding in CHO cell membranes expressing human vasopressin V2 subtype receptors ([3H]arginine vasopressin radioligand binding)
Settings: for inhibition at 0.1 µM: @ 100 nM
Text: Vasopressin Binding in Chinese Hamster Ovary Cell Membranes Expressing Human Vasopressin V2 Subtype Receptors
Chinese Hamster Ovary (CHO) cells stably transfected with the human V2 subtype receptors were obtained from M. Thibonnier, Case Western Reserve University School of Medicine, Cleveland, Ohio.
A. Passaging and Amplification of Cells
CHO cells transfected with the human vasopressin V2 subtype receptors obtained from M. Thibonnier (pZeoSV vector) are allowed to grow to confluency (approx. >90%) in T-150 flasks under sterile conditions, in a cell culture medium ofF-12 Nutrient Mixture (HAM) with L-glutamine (Gibco Cat. #11765-054) containing 15 mM HEPES (Gibco Cat. #15630-080), 1% antibiotic/antimycotic (add 5 mL 100×, Gibco Cat. #15240-062 per 500 mL F-12), 250 μg/mL Zeocin (add 1.25 mL of 100 mg/mL Invitrogen R-250-01 per 500 mL F-1 2) and 10% Fetal Bovine Serum (Qualified, heat inactivated, Gibco Cat. #16140-063). The medium is removed by aspiration and the cells washed with 10 mL of Hank's Balanced Salt solution (Gibco Cat. #14175-095). The salt solution is removed by aspiration and the cells trypsinized with 5 mL of trypsin-EDTA (0.05% trypsin, 0.53 mM EDTA-4Na, Gibco Cat. #25300-070) for 1 min. The trypsin is removed by aspiration and the cells dislodged by tapping. Cell Culture medium (e.g. 30 mL for 1:30 split) is immediately added and mixed well to inactivate trypsin. 1 mL of detached cells is added to new culture flasks containing fresh Cell Culture medium (e.g. into 25 mL per T-150 flask), and mixed gently. The cells are incubated at 37° C. in 5% CO2. The medium is changed at 3 to 4 day interval (or as appropriate). The cells grow to confluency (approx. >75%-95%) within 7-8 days. All steps are done under sterile conditions.
The cells are washed twice gently with Hank's Balanced Salt solution (e.g. use 10 mL per T-150 flask). The excess solution is removed and the cells bathed for 15-30 min. in an enzyme-free Cell Dissociation Buffer (e.g. use 8 mL Hank's Based, Gibco Cat. # 13150-016 per T-150 flask) until cells are loosened. The contents are transferred to centrifuge tubes (50 mL) kept in ice bath. All subsequent steps are done at 4° C. The tubes are centrifuged at 300×g for 15 min (1380 rpm on SORVAL, Model RT6000D, using the rotor for 50 mL tubes). The supernatant is discarded and the cells suspended in homogenizing buffer (10 mM Tris-HCl containing 0.25 M sucrose and 1 mM EDTA, pH 7.4) ensuring that the volume of the buffer is about ten times the volume of the cell pellet. The cells are pooled into a centrifuge tube (50 mL) and homogenized with Polytron at setting 6 for 10 sec. The homogenate is transferred into a Potter-Elvjehm homogenizer and homogenized with 3 strokes. The homogenate is centrifuged at 1500×g for 60 min at 4° C. (3100 rpm using SORVAL, model RT6000D, using the rotor for 50 mL tubes). The pellet is discarded. The supernatant is centrifuged at 100,000×g for 60 min. at 4° C. (Beckman L8-80M ultracentrifuge; spin at 37,500 rpm with rotor type 70 Ti for 50 mL tubes; 38,000 rpm with type 80Ti for 15 mL tubes; or 35,800 rpm with rotor type 45Ti). The supernantant is discarded and the pellet suspended in 3 to 4 mL of Tris buffer (50 mM TRIS—HCl, pH 7.4). The protein content is estimated by the Bradford or Lowry method. The volume of the membrane suspension is adjusted with the membrane buffer (50 mM Tris-HCl containing 0.1% BSA and 0.1 mM PMSF) to give 3.0 mg/mL (or as appropriate) of protein. The membranes are aliquoted and stored at −70. ° C.
C. Radioligand Binding Assay
In wells of a 96-well format microtiter plate, is added 90, 110 or 130 μL (to make up a final volume of 200 μL) of assay buffer containing 50 mM of Tris-HCl (pH 7.4), […], 1 mg % aprotinin, 1 mg % leupeptin, 2 mg % 1,10-phenanthroline, 10 mg % trypsin inhibitor, and 0.1 mM PMSF. The inhibitors are added on the day of the experiment. […]

Compound | inhibition at 0.1 µM [%] | IC50 (value printed in parentheses) [nM]
COc1ccccc1-c1ccc(C(=O)N2Cc3ccc(C(=O)N4CCN(CCO)CC4)n3Cc3ccccc32)cc1 [Example 47, [4-(2-Hydroxyethyl)-1-piperazinyl]{10-[(2′-methoxy[1,1′-biphenyl]-4-yl)carbonyl]-10,11-dihydro-5H-pyrrolo[2,1-c][1,4]benzodiazepin-3-yl}methanone] | 16 | –
Cc1cc(C(=O)N2Cc3ccc(C(=O)N4CCN(CCO)CC4)n3Cc3ccccc32)ccc1-c1ccccc1C(F)(F)F [Example 48, [4-(2-Hydroxyethyl)-1-piperazinyl](10-{[2-methyl-2′-(trifluoromethyl)[1,1′-biphenyl]-4-yl)carbonyl}-10,11-dihydro-5H-pyrrolo[2,1-c][1,4]benzodiazepin-3-yl)methanone] | 11 | –
COc1cccc(-c2cc(OC)c(C(=O)N3Cc4ccc(C(=O)N5CCN(CCO)CC5)n4Cc4ccccc43)cc2Cl)c1 [Example 49, {10-[(6-Chloro-3,3′-dimethoxy[1,1′-biphenyl]-4-yl)carbonyl]-10,11-dihydro-5H-pyrrolo[2,1-c][1,4]benzodiazepin-3-yl}[4-(2-hydroxyethyl)-1-piperazinyl]methanone] | 21 | –
COc1cccc(-c2ccc(C(=O)N3Cc4ccc(C(=O)N5CCN(CCO)CC5)n4Cc4ccccc43)cc2OC)c1 [Example 50, {10-[(2,3′-Dimethoxy[1,1′-biphenyl]-4-yl)carbonyl]-10,11-dihydro-5H-pyrrolo[2,1-c][1,4]benzodiazepin-3-yl}[4-(2-hydroxyethyl)-1-piperazinyl]methanone] | 16 | –
COc1cc(C(=O)N2Cc3ccc(C(=O)N4CCN(CCO)CC4)n3Cc3ccccc32)ccc1-n1c(C)ccc1C [Example 52, {10-[4-(2,5-Dimethyl-1H-pyrrol-1-yl)-3-methoxybenzoyl]-10,11-dihydro-5H-pyrrolo[2,1-c][1,4]benzodiazepin-3-yl}[4-(2-hydroxyethyl)-1-piperazinyl]methanone] | 3 | –
{(2S)-1-[(10-{[2-Methoxy-2(trifluoromethyl)[1,1′-biphenyl]-4-yl]carbonyl}-10,11-dihydro-5H-pyrrolo[2,1-c][1,4]benzodiazepin-3-yl)carbonyl]pyrrolidin-2-yl}-methanol [Example 36] | – | 2070
